Assay results as given in ChEMBL document CHEMBL3997783, “Synthesis and anti-acute myeloid leukemia activity of C-14 modified parthenolide derivatives” (Eur J Med Chem, 2017).

How the values were obtained:
KG-1a [1] = test: Cytotoxicity against human KG1a cells assessed as decrease in cell proliferation after 48 hrs by MTT assay; type: functional, cell-based
HL-60 = test: Cytotoxicity against human HL60 cells assessed as decrease in cell proliferation after 48 hrs by MTT assay; type: functional, cell-based; details: HL-60, 48 h
KG-1a [2] = test: Induction of apoptosis in human KG1a cells assessed as early apoptotic cells at 10 uM after 16 hrs by annexin V-FITC/propidium iodide staining-based flow cytometric method (reference value: 0.113%); type: functional
KG-1a [3] = test: Induction of apoptosis in human KG1a cells assessed as late apoptotic cells at 10 uM after 16 hrs by annexin V-FITC/propidium iodide staining-based flow cytometric method (reference value: 1.01%); type: functional
KG-1a [4] = test: Induction of apoptosis in human KG1a cells assessed as necrotic cells at 10 uM after 16 hrs by annexin V-FITC/propidium iodide staining-based flow cytometric method (reference value: 0.170%); type: functional
KG-1a [5] = test: Induction of apoptosis in human KG1a cells assessed as viable cells at 10 uM after 16 hrs by annexin V-FITC/propidium iodide staining-based flow cytometric method (reference value: 98.7%); type: functional; details: read-out: Activity
KG-1a [6] = test: Induction of apoptosis in human KG1a cells assessed as early apoptotic cells at 20 uM after 16 hrs by annexin V-FITC/propidium iodide staining-based flow cytometric method (reference value: 0.113%); type: functional
KG-1a [7] = test: Induction of apoptosis in human KG1a cells assessed as late apoptotic cells at 20 uM after 16 hrs by annexin V-FITC/propidium iodide staining-based flow cytometric method (reference value: 1.01%); type: functional
KG-1a [8] = test: Induction of apoptosis in human KG1a cells assessed as necrotic cells at 20 uM after 16 hrs by annexin V-FITC/propidium iodide staining-based flow cytometric method (reference value: 0.170%); type: functional
KG-1a [9] = test: Induction of apoptosis in human KG1a cells assessed as viable cells at 20 uM after 16 hrs by annexin V-FITC/propidium iodide staining-based flow cytometric method (reference value: 98.7%); type: functional; details: read-out: Activity
[10] = Selectivity ratio of IC50 for human KG1a cells to IC50 for human HL60 cells; type: functional

Row | Structure (SMILES) | IC50 (KG-1a [1]) | IC50 (HL-60) | further results
1 | C=C1C(=O)O[C@H]2[C@H]1CC/C(C(=O)N(CC)CC)=C\CC[C@@]1(C)O[C@@H]21 | 4.3 µM | 2.7 µM | 
2 | C=C1C(=O)O[C@H]2[C@H]1CC/C(C(=O)N1CCN(C(=O)/C3=C/CC[C@@]4(C)O[C@H]4[C@H]4OC(=O)C(=C)[C@@H]4CC3)CC1)=C\CC[C@@]1(C)O[C@@H]21 | > 50 µM | > 50 µM | 
3 | C=C1C(=O)O[C@H]2[C@H]1CC/C(C(=O)N(C)C)=C\CC[C@@]1(C)O[C@@H]21 | 6.1 µM | 1.3 µM | 
4 | C=C1C(=O)O[C@H]2[C@H]1CC/C(C(=O)N1CCOCC1)=C\CC[C@@]1(C)O[C@@H]21 | 29.9 µM | 3.9 µM | 
5 | C=C1C(=O)O[C@H]2[C@H]1CC/C(COCc1ccccc1)=C\CC[C@@]1(C)O[C@@H]21 | 4.8 µM | 3.5 µM | 
6 | C=C1C(=O)O[C@H]2[C@H]1CC/C(COC(=O)c1cccs1)=C\CC[C@@]1(C)O[C@@H]21 | 3.9 µM | 1.7 µM | 
7 | C=C1C(=O)O[C@H]2[C@H]1CC/C(COC(=O)C1CCCCC1)=C\CC[C@@]1(C)O[C@@H]21 | 8.6 µM | 6.7 µM | 
8 | C=C1C(=O)O[C@@H]2C3O[C@]3(C)CC/C=C(\C)CC[C@@H]12 (some centres undefined) | 3.5 µM | 4.2 µM | Activity (KG-1a [2]): 0.413%; Activity (KG-1a [3]): 4.08%; Activity (KG-1a [4]): 0.327%; viability at 10 µM (KG-1a [5]): 95.2%; Activity (KG-1a [6]): 0.336%; Activity (KG-1a [7]): 13.1%; Activity (KG-1a [8]): 1.81%; viability at 20 µM (KG-1a [9]): 84.7%
9 | C=C1C(=O)O[C@H]2[C@H]1CC/C(C(=O)O)=C\CC[C@@]1(C)O[C@@H]21 | > 50 µM | > 50 µM | 
10 | C=C1C(=O)O[C@H]2[C@H]1CC/C(C(=O)N1CCCC1)=C\CC[C@@]1(C)O[C@@H]21 | 1.8 µM | 4 µM | 
11 | C=C1C(=O)O[C@H]2[C@H]1CC/C(C(=O)N(CCC)CCC)=C\CC[C@@]1(C)O[C@@H]21 | 2 µM | 1 µM | 
12 | C=C1C(=O)O[C@H]2[C@H]1CC/C(C(=O)N1CCC(C)CC1)=C\CC[C@@]1(C)O[C@@H]21 | 1.6 µM | 6.3 µM | 
13 | C=C1C(=O)O[C@H]2[C@H]1CC/C(COC(=O)CCCCCC)=C\CC[C@@]1(C)O[C@@H]21 | 5.8 µM | 6 µM | 
14 | C=C1C(=O)O[C@H]2[C@H]1CC/C(C(=O)OCc1ccccc1)=C\CC[C@@]1(C)O[C@@H]21 | 3.3 µM | 2.2 µM | 
15 | C=C1C(=O)O[C@H]2[C@H]1CC/C(COC(=O)c1ccccc1C#N)=C\CC[C@@]1(C)O[C@@H]21 | 3.3 µM | 1.2 µM | 
16 | C=C1C(=O)O[C@H]2[C@H]1CC/C(COC(=O)c1ccc(OC)cc1)=C\CC[C@@]1(C)O[C@@H]21 | 5.3 µM | 2.1 µM | 
17 | C=C1C(=O)O[C@H]2[C@H]1CC/C(c1nc3ccccc3s1)=C\CC[C@@]1(C)O[C@@H]21 | 5.1 µM | 8.2 µM | 
18 | COc1cccc2c1C(=O)c1c(O)c3c(c(O)c1C2=O)C[C@@](O)(C(=O)CO)C[C@@H]3O[C@H]1C[C@H](N)[C@H](O)[C@H](C)O1.Cl [DOXORUBICIN HYDROCHLORIDE] | 0.08 µM | 0.019 µM | Ratio IC50 [10]: 4

Row | Structure (SMILES) | IC50 (KG-1a [1]) | IC50 (HL-60) | further results
19 | C=C1C(=O)O[C@H]2[C@H]1CC/C(COC(=O)/C=C/c1ccccc1)=C\CC[C@@]1(C)O[C@@H]21 | 0.4 µM | 1.1 µM | Activity (KG-1a [2]): 0.381%; Activity (KG-1a [3]): 22.7%; Activity (KG-1a [4]): 1.37%; viability at 10 µM (KG-1a [5]): 75.6%; Activity (KG-1a [6]): 0.087%; Activity (KG-1a [7]): 46.7%; Activity (KG-1a [8]): 1.61%; viability at 20 µM (KG-1a [9]): 51.6%
20 | C=C1C(=O)O[C@H]2[C@H]1CC/C(COC(C)=O)=C\CC[C@@]1(C)O[C@@H]21 | 6.3 µM | 2.8 µM | 
21 | C=C1C(=O)O[C@H]2[C@H]1CC/C(COC(=O)c1ccc(C#N)cc1)=C\CC[C@@]1(C)O[C@@H]21 | 6.7 µM | 1.7 µM | 
22 | C=C1C(=O)O[C@H]2[C@H]1CC/C(COC)=C\CC[C@@]1(C)O[C@@H]21 | 2.4 µM | 7.7 µM | 
23 | C=C1C(=O)O[C@H]2[C@H]1CC/C(C(=O)N1CCCCC1)=C\CC[C@@]1(C)O[C@@H]21 | 3.2 µM | 1.8 µM | 
24 | C=C1C(=O)O[C@H]2[C@H]1CC/C(COC(=O)/C=C/C)=C\CC[C@@]1(C)O[C@@H]21 | 5.1 µM | 4.6 µM | 
25 | C=C1C(=O)O[C@H]2[C@H]1CC/C(COCc1ccc(OC)cc1)=C\CC[C@@]1(C)O[C@@H]21 | 1.1 µM | 2.7 µM | 
26 | C=C1C(=O)O[C@H]2[C@H]1CC/C(C(=O)N1CCN(C(=O)OC(C)(C)C)CC1)=C\CC[C@@]1(C)O[C@@H]21 | 1.7 µM | 5.1 µM | 
27 | C=C1C(=O)O[C@H]2[C@H]1CC/C(COC(=O)c1ccc(C(F)(F)F)cc1)=C\CC[C@@]1(C)O[C@@H]21 | 4 µM | 2.3 µM | 
28 | C=C1C(=O)O[C@H]2[C@H]1CC/C(C(=O)N1CCNCC1)=C\CC[C@@]1(C)O[C@@H]21 | > 50 µM | > 50 µM | 
29 | C=C1C(=O)O[C@H]2[C@H]1CC/C(C=O)=C\CC[C@@]1(C)O[C@@H]21 | 6.3 µM | 9.9 µM | 
30 | C=C1C(=O)O[C@H]2[C@H]1CC/C(COC(=O)c1ccccc1)=C\CC[C@@]1(C)O[C@@H]21 | 3.3 µM | 2.4 µM | 
31 | C=C1C(=O)O[C@H]2[C@H]1CC/C(C(=O)OCc1ccc(C(F)(F)F)cc1)=C\CC[C@@]1(C)O[C@@H]21 | 2 µM | 1 µM | 
32 | C=C1C(=O)O[C@H]2[C@H]1CC/C(C(=O)OC)=C\CC[C@@]1(C)O[C@@H]21 | 5.4 µM | 4.9 µM | 
33 | C=C1C(=O)O[C@H]2[C@H]1CC/C(C(=O)N1CCC(c3ccccc3)CC1)=C\CC[C@@]1(C)O[C@@H]21 | 2.2 µM | 2.2 µM | 
34 | C=C1C(=O)O[C@H]2[C@H]1CC/C(COCc1ccc(C(F)(F)F)cc1)=C\CC[C@@]1(C)O[C@@H]21 | 2.4 µM | 1.9 µM | 
35 | C=C1C(=O)O[C@H]2[C@H]1CC/C(CO)=C\CC[C@@]1(C)O[C@@H]21 | 6.8 µM | 10.3 µM | 
36 | C=C1C(=O)O[C@H]2[C@H]1CC/C(C(=O)N(CCCC)CCCC)=C\CC[C@@]1(C)O[C@@H]21 | 1.4 µM | 3.7 µM | 
